Laboratory results published in patent publication US20170240556A1, “BIFLUORODIOXALANE-AMINO-BENZIMIDAZOLE KINASE INHIBITORS FOR THE TREATMENT OF CANCER, AUTOIMMUNEINFLAMMATION AND CNS DISORDERS” (4SC DISCOVERY GMBH, priority 2012, published 2017).

What was measured:
Assay in all cases: Proliferation Assay
Type in all cases: cell-based
A204 (muscle) = conditions: Homo sapiens, 72 h, read-out: IC50 inhibition of cell growth
Procedure: (§1) For the determination of the inhibitory capacity of compounds of the present invention (in the following: “test compound(s)”) on cell growth, cancer cells were seeded into microtitre plates, treated with different concentrations of test compound or left untreated, and after 72 h the protein content was determined as an equivalent for the cell number.
(§2) Test compounds were dissolved in 100% DMSO and predilutions in cell culture medium were prepared with a final concentration of 0.1% DMSO in medium. The cell culture medium for dilution of the test compounds, consecutive culturing of cell lines and usage during the assay was a cell line specific medium as recommended by the cell line supplier and identical for all three applications mentioned above. After a 24-hour pre-growth period of the seeded cancer cells, the test compound containing media or medium containing 0.1% DMSO as control was added to the cells. The cells were allowed to grow at 37° C. for 72 hours. In addition, all experiments contained a few plates with cells that were processed for measurement immediately after the 24 hours recovery period. These plates contained information about the cell number that existed before treatment, at time zero, and served to calculate the cytotoxicity and/or growth inhibitory effects.
(§3) After treatment, cells were precipitated by addition of 10% TCA (trichloracetic acid). Prior to fixation, the media was aspirated. After an hour of incubation at 4° C. the plates were washed twice with 400 μl of deionized water. Cells were then stained with 100 μl of a 0.08% wt/v SRB (sulforhodamine). The plates were allowed to sit for at least 30 min and washed six times with 1% acetic acid to remove unbound staining agent. The plates were left to dry at room temperature and bound SRB was solubilized with 100 μl of 10 mM Tris base. Measurement of optical density was performed at 560 nm on a Victor 2 plate reader (Perkin Elmer, Germany).
(§4) One common way to express the effect of an anticancer agent is to measure cell viability and survival in the presence of the test agent as % Treated/Control×100. The relationship between the viability and dose is called a dose response curve. Those dose response curves were determined by using algorithms developed by Oncolead GmbH & Co. KG, Munich, Germany, that can be compared to commercial applications, e.g. XLfit™ (ID Business Solutions Ltd., Guildford, UK) algorithm “205”.

A549 (lung) = conditions: Homo sapiens, 72 h, read-out: IC50 inhibition of cell growth
Procedure: as §1, §2, §3, §4

C33A (cervix) = conditions: Homo sapiens, C-33-A, 72 h, read-out: IC50 inhibition of cell growth
Procedure: as §1, §2, §3, §4

CLS439 (bladder) = conditions: 72 h, read-out: IC50 inhibition of cell growth
Procedure: as §1, §2, §3, §4

HELA (cervix) = conditions: Homo sapiens, 72 h, read-out: IC50 inhibition of cell growth
Procedure: as §1, §2, §3, §4

HT29 (colon) = conditions: Homo sapiens, HT-29, 72 h, read-out: IC50 inhibition of cell growth
Procedure: as §1, §2, §3, §4

J82 (bladder) = conditions: 72 h, read-out: IC50 inhibition of cell growth
Procedure: as §1, §2, §3, §4

JEG3 (placenta) = conditions: Homo sapiens, JEG-3, 72 h, read-out: IC50 inhibition of cell growth
Procedure: as §1, §2, §3, §4

MIAPACA2 (pancreas) = conditions: Homo sapiens, MIA PaCa-2, 72 h, read-out: IC50 inhibition of cell growth
Procedure: as §1, §2, §3, §4

OVCAR4 (ovary) = conditions: Homo sapiens, OVCAR-4, 72 h, read-out: IC50 inhibition of cell growth
Procedure: as §1, §2, §3, §4

SKOV3 (ovary) = conditions: Homo sapiens, SK-OV-3, 72 h, read-out: IC50 inhibition of cell growth
Procedure: as §1, §2, §3, §4

SW620 (colon) = conditions: Homo sapiens, SW-620, 72 h, read-out: IC50 inhibition of cell growth
Procedure: as §1, §2, §3, §4

TE671 (muscle) = conditions: Homo sapiens, TE-671, 72 h, read-out: IC50 inhibition of cell growth
Procedure: as §1, §2, §3, §4

Measured: IC50

COc1cccc(C(=O)Nc2nc3cc4c(cc3[nH]2)OC(F)(F)O4)c1 [Compound 56, N-(2,2-difluoro-5H-[1,3]dioxolo[4′,5′:4,5]benzo[1,2-d]imidazol-6-yl)-3-methoxybenzamide]
≤ 1000 nM: all assays above
